Measured values from US20030207932A1, “Compositions that prevent post-traumatic hyperpigmentation and methods related thereto” (priority 2002, published 2003).

Test system: patients with a strong genetic predisposition to post traumatic hyperpigmentation
Experiment: Proof of concept in patients predisposed to post traumatic hyperpigmentation
Assay type: in vivo, human
Details: five subjects; oral zafirlukast alone, 20 mg two times daily, two weeks prior and thereafter for two months
Method: The patients were known to have this predisposition because prior trauma pigmented areas. Five of the subjects were given the oral composition zafirlukast, two weeks prior and thereafter for two months. The dosage was 20 mg two time daily. The other five individuals were give the same medication that the same dosage for the same amount of time, but in addition, were also given a topical preparation.
Five further patients were then selected with obvious genetic predisposition to post traumatic hyperpigmentation. They were given only the topical composition after their surgical procedure. The topical composition was applied three times daily for two months after the procedure. […] This was completely unexpected. The topical composition, as administered, is described in Table 1 below.

SMILES: COc1cc(C(=O)NS(=O)(=O)c2ccccc2C)ccc1Cc1cn(C)c2ccc(NC(=O)OC3CCCC3)cc12 [zafirlukast]
- development of hyperpigmentation: In no case did hyperpigmentation develop
